≈ marks a conversion by molar mass, not a printed value. Like-named read-outs stand apart in the source and are kept apart here.
Key:
[1] = test system: E. coli GC 2270; assay: MIC, broth microdilution; details: Escherichia coli, GC2270, E. coli GC 2270
[2] = test system: S. aureus GC 1079; assay: MIC, broth microdilution; details: Staphylococcus aureus, GC1079, S. aureus GC 1079
[3] = test system: E. coli GC 6465; assay: MIC, broth microdilution; details: Escherichia coli, GC6465, E. coli GC 6465
[4] = test system: E. coli GC 4560; assay: MIC, broth microdilution; details: Escherichia coli, GC4560, E. coli GC 4560
[5] = test system: S. aureus GC 6467; assay: MIC, broth microdilution; details: Staphylococcus aureus, GC6467, S. aureus GC 6467
[6] = test system: E. faecium GC 2243; assay: MIC, broth microdilution; details: Enterococcus faecium, GC2243, E. faecium GC 2243
[7] = test system: S. aureus GC 4536; assay: MIC, broth microdilution; details: Staphylococcus aureus, GC4536, S. aureus GC 4536
[8] = test system: S. typhimurium GC 2172; assay: MIC, broth microdilution; details: Salmonella enterica, TYPHIMURIUM, S. typhimurium GC 2172
[9] = test system: E. coli GC 2235; assay: MIC, broth microdilution; details: Escherichia coli, GC2235, E. coli GC 2235
[10] = test system: S. aureus GC 6466; assay: MIC, broth microdilution; details: Staphylococcus aureus, GC6466, S. aureus GC 6466
[11] = test system: E. coli GC 2233; assay: MIC, broth microdilution; details: Escherichia coli, GC2233, E. coli GC 2233
[12] = test system: Staph.; assay: Range of MIC for Staph. strains, including MRSA; details: Staphylococcus aureus, MRSA
[13] = test system: E. coli; assay: Range of MIC for E. coli strains; details: Escherichia coli
[14] = test system: E. faecium GC 4556; assay: MIC, broth microdilution; details: Enterococcus faecium, GC4556, E. faecium GC 4556
[15] = test system: E. faecalis GC 2242; assay: MIC, broth microdilution; details: Enterococcus faecalis, GC2242, E. faecalis GC 2242
[16] = test system: E. coli GC 1073; assay: MIC, broth microdilution; details: Escherichia coli, GC1073, E. coli GC 1073
[17] = test system: S. aureus GC 2216; assay: MIC, broth microdilution; details: Staphylococcus aureus, GC2216, S. aureus GC 2216
[18] = test system: c. albicans GC 3066; assay: MIC, broth microdilution
[19] = test system: E. coli GC 2231; assay: MIC, broth microdilution; details: Escherichia coli, GC2231, E. coli GC 2231
[20] = test system: S. aureus GC 6469; assay: MIC, broth microdilution; details: Staphylococcus aureus, GC6469, S. aureus GC 6469
[21] = read-out: Minimum inhibitory concentration (MIC), Staph. (mouse serum)
[22] = read-out: Minimum inhibitory concentration (MIC), Staph. (water)
[23] = read-out: Range of MIC, Staph (Mouse Serum)
[24] = read-out: Range of MIC, Staph (Water)
[25] = 20 h, read-out: Range of MIC, E. coli (Mouse Serum)
[26] = read-out: Minimum inhibitory concentration (MIC), E. coli (mouse serum)
[27] = read-out: Minimum inhibitory concentration (MIC), E. coli (water)
[28] = read-out: Range of MIC, E. coli (Water)
[29] = c. albicans GC 3066, Water pre-incubation

CCCCN(CC(=O)Nc1cc(N(C)C)c2c(c1O)C(=O)C1=C(O)[C@]3(O)C(=O)C(C(N)=O)=C(O)[C@@H](N(C)C)[C@@H]3C[C@@H]1C2)C(=O)OCOC(=O)Cc1ccccc1 [Example 12, ({[(2-{[(5aR,6aS,7S,10aS)-9-(aminocarbonyl)-4,7-bis(dimethylamino)-1,8,10a,11-tetrahydroxy-10,12-dioxo-5,5a,6,6a,7,10,10a,12-octahydrotetracen-2-yl]amino}-2-oxoethyl)(butyl)amino]carbonyl}oxy)methyl phenylacetate] showed an MIC ([1]; Mouse Serum pre-incubation) of 0.5 µg/mL (≈ 0.643 µM), an MIC ([1]; Water pre-incubation) of 32 µg/mL (≈ 41.1 µM) and an MIC ([2]; Mouse Serum pre-incubation) of 2 µg/mL (≈ 2.57 µM). For the same compound, the MIC ([2]; Water pre-incubation) was 8 µg/mL (≈ 10.3 µM), the MIC ([3]; Mouse Serum pre-incubation) was 8 µg/mL (≈ 10.3 µM) and the MIC ([3]; Water pre-incubation) was greater than 64 µg/mL. For the same compound, the MIC ([4]; Mouse Serum pre-incubation) was 0.25 µg/mL (≈ 0.321 µM), the MIC ([4]; Water pre-incubation) was 1 µg/mL (≈ 1.29 µM) and the MIC ([5]; Mouse Serum pre-incubation) was 4 µg/mL (≈ 5.14 µM). For the same compound, the MIC ([5]; Water pre-incubation) was 16 µg/mL (≈ 20.6 µM), the MIC ([6]; Mouse Serum pre-incubation) was 0.5 µg/mL (≈ 0.643 µM) and the MIC ([6]; Water pre-incubation) was 4 µg/mL (≈ 5.14 µM). The MIC ([7]; Mouse Serum pre-incubation) was 1 µg/mL (≈ 1.29 µM), the MIC ([7]; Water pre-incubation) was 2 µg/mL (≈ 2.57 µM) and the MIC ([8]; Mouse Serum pre-incubation) was 4 µg/mL (≈ 5.14 µM). The MIC ([8]; Water pre-incubation) was greater than 64 µg/mL, the MIC ([9]; Mouse Serum pre-incubation) was 1 µg/mL (≈ 1.29 µM) and the MIC ([9]; Water pre-incubation) was 16 µg/mL (≈ 20.6 µM). For the same compound, the MIC ([10]; Mouse Serum pre-incubation) was 0.5 µg/mL (≈ 0.643 µM), the MIC ([10]; Water pre-incubation) was 1 µg/mL (≈ 1.29 µM) and the MIC ([11]; Mouse Serum pre-incubation) was 1 µg/mL (≈ 1.29 µM). For the same compound, the MIC ([11]; Water pre-incubation) was 32 µg/mL (≈ 41.1 µM), the MIC [12, 21] was 0.5 to 4 µg/mL (≈ 0.643 to 5.14 µM) and the MIC [12, 22] was 1 to 16 µg/mL (≈ 1.29 to 20.6 µM). For the same compound, the MIC [12, 23] was 0.5 to 4 µg/mL (≈ 0.643 to 5.14 µM), the MIC [12, 24] was 1 to 16 µg/mL (≈ 1.29 to 20.6 µM) and the MIC [13, 25] was 0.5 to 2 µg/mL (≈ 0.643 to 2.57 µM). For the same compound, the MIC [13, 26] was 0.5 to 2 µg/mL (≈ 0.643 to 2.57 µM), the MIC [13, 27] was 16 to 64 µg/mL (≈ 20.6 to 82.3 µM) and the MIC [13, 28] was 16 to 64 µg/mL (≈ 20.6 to 82.3 µM). It also gave an MIC ([14]; Mouse Serum pre-incubation) of 1 µg/mL (≈ 1.29 µM), an MIC ([14]; Water pre-incubation) of 4 µg/mL (≈ 5.14 µM) and an MIC ([15]; Mouse Serum pre-incubation) of 2 µg/mL (≈ 2.57 µM). The MIC ([15]; Water pre-incubation) was 4 µg/mL (≈ 5.14 µM), the MIC ([16]; Mouse Serum pre-incubation) was 1 µg/mL (≈ 1.29 µM) and the MIC ([16]; Water pre-incubation) was 64 µg/mL (≈ 82.3 µM). It also gave an MIC ([17]; Mouse Serum pre-incubation) of 1 µg/mL (≈ 1.29 µM), an MIC ([17]; Water pre-incubation) of 4 µg/mL (≈ 5.14 µM) and an MIC ([18]; Candida albicans, GC3066) greater than 64 µg/mL. It also gave an MIC [18, 29] greater than 64 UG/ML, an MIC ([19]; Mouse Serum pre-incubation) of 2 µg/mL (≈ 2.57 µM) and an MIC ([19]; Water pre-incubation) of 64 µg/mL (≈ 82.3 µM). For the same compound, the MIC ([20]; Mouse Serum pre-incubation) was 4 µg/mL (≈ 5.14 µM) and the MIC ([20]; Water pre-incubation) was 16 µg/mL (≈ 20.6 µM).
Work on CCCCN(CC(=O)Nc1cc(N(C)C)c2c(c1O)C(=O)C1=C(O)[C@]3(O)C(=O)C(C(N)=O)=C(O)[C@@H](N(C)C)[C@@H]3C[C@@H]1C2)C(=O)OCOC(=O)C(C)(C)C [Example 13, ({[(2-{[(5aR,6aS,7S,10aS)-9-(aminocarbonyl)-4,7-bis(dimethylamino)-1,8,10a,11-tetrahydroxy-10,12-dioxo-5,5a,6,6a,7,10,10a,12-octahydrotetracen-2-yl]amino}-2-oxoethyl)(butyl)amino]carbonyl}oxy)methyl pivalate] yielded an MIC ([1]; Mouse Serum pre-incubation) of 1 µg/mL (≈ 1.34 µM), an MIC ([1]; Water pre-incubation) of 8 µg/mL (≈ 10.8 µM) and an MIC ([2]; Mouse Serum pre-incubation) of 4 µg/mL (≈ 5.38 µM). For the same compound, the MIC ([2]; Water pre-incubation) was 4 µg/mL (≈ 5.38 µM), the MIC ([3]; Mouse Serum pre-incubation) was 8 µg/mL (≈ 10.8 µM) and the MIC ([3]; Water pre-incubation) was greater than 64 µg/mL. For the same compound, the MIC ([4]; Mouse Serum pre-incubation) was 1 µg/mL (≈ 1.34 µM), the MIC ([4]; Water pre-incubation) was 4 µg/mL (≈ 5.38 µM) and the MIC ([5]; Mouse Serum pre-incubation) was 4 µg/mL (≈ 5.38 µM). The MIC ([5]; Water pre-incubation) was 8 µg/mL (≈ 10.8 µM), the MIC ([6]; Mouse Serum pre-incubation) was 2 µg/mL (≈ 2.69 µM) and the MIC ([6]; Water pre-incubation) was 4 µg/mL (≈ 5.38 µM). For the same compound, the MIC ([7]; Mouse Serum pre-incubation) was 1 µg/mL (≈ 1.34 µM), the MIC ([7]; Water pre-incubation) was 2 µg/mL (≈ 2.69 µM) and the MIC ([8]; Mouse Serum pre-incubation) was 8 µg/mL (≈ 10.8 µM). It also gave an MIC ([8]; Water pre-incubation) of 64 µg/mL (≈ 86 µM), an MIC ([9]; Mouse Serum pre-incubation) of 2 µg/mL (≈ 2.69 µM) and an MIC ([9]; Water pre-incubation) of 8 µg/mL (≈ 10.8 µM). It also gave an MIC ([10]; Mouse Serum pre-incubation) of 1 µg/mL (≈ 1.34 µM), an MIC ([10]; Water pre-incubation) of 2 µg/mL (≈ 2.69 µM) and an MIC ([11]; Mouse Serum pre-incubation) of 2 µg/mL (≈ 2.69 µM). It also gave an MIC ([11]; Water pre-incubation) of 8 µg/mL (≈ 10.8 µM), an MIC [12, 21] of 1 to 4 µg/mL (≈ 1.34 to 5.38 µM) and an MIC [12, 22] of 2 to 8 µg/mL (≈ 2.69 to 10.8 µM). For the same compound, the MIC [12, 23] was 1 to 4 µg/mL (≈ 1.34 to 5.38 µM), the MIC [12, 24] was 2 to 8 µg/mL (≈ 2.69 to 10.8 µM) and the MIC [13, 25] was 1 to 4 µg/mL (≈ 1.34 to 5.38 µM). It also gave an MIC [13, 26] of 1 to 4 µg/mL (≈ 1.34 to 5.38 µM), an MIC [13, 27] of 8 to 16 µg/mL (≈ 10.8 to 21.5 µM) and an MIC [13, 28] of 8 to 16 µg/mL (≈ 10.8 to 21.5 µM). It also gave an MIC ([14]; Mouse Serum pre-incubation) of 2 µg/mL (≈ 2.69 µM), an MIC ([14]; Water pre-incubation) of 8 µg/mL (≈ 10.8 µM) and an MIC ([15]; Mouse Serum pre-incubation) of 4 µg/mL (≈ 5.38 µM). For the same compound, the MIC ([15]; Water pre-incubation) was 8 µg/mL (≈ 10.8 µM), the MIC ([16]; Mouse Serum pre-incubation) was 2 µg/mL (≈ 2.69 µM) and the MIC ([16]; Water pre-incubation) was 16 µg/mL (≈ 21.5 µM). The MIC ([17]; Mouse Serum pre-incubation) was 2 µg/mL (≈ 2.69 µM), the MIC ([17]; Water pre-incubation) was 4 µg/mL (≈ 5.38 µM) and the MIC ([18]; Candida albicans, GC3066) was greater than 64 µg/mL. It also gave an MIC [18, 29] greater than 64 UG/ML, an MIC ([19]; Mouse Serum pre-incubation) of 2 µg/mL (≈ 2.69 µM) and an MIC ([19]; Water pre-incubation) of 16 µg/mL (≈ 21.5 µM). The MIC ([20]; Mouse Serum pre-incubation) was 4 µg/mL (≈ 5.38 µM) and the MIC ([20]; Water pre-incubation) was 8 µg/mL (≈ 10.8 µM).

— patent US20070049564A1 (Wyeth, priority 2005, published 2007)
